From the supplement of paper PMC9663587

Compound: CCN1CCN(Cc2ccc(Nc3ncc(F)c(-c4cc(F)c5nc(C)n(C(C)C)c5c4)n3)nc2)CC1
Assay: increase in dead-cell fraction, 72 h; higher = more death;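 further: breast cancer cell lines in 384-well plates, stained with Hoechst plus LIVE/DEAD far red dye and imaged, cells above an LDR intensity threshold counted dead, Hoechst-negative corpses included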
Settings: 10 µM

Cell Line	increase in dead-cell fraction
MDAMB415	0.0164
MDAMB436	0.316

Compound: CN(C)C/C=C/C(=O)Nc1ccc(C(=O)N2CCC[C@@H](Nc3ncc(Cl)c(-c4c[nH]c5ccccc45)n3)C2)cc1 [THZ531]
Assay: as above
Settings: 0.0001 µM

Cell Line	increase in dead-cell fraction
MDAMB231	-0.0027
MDAMB330	0.0039
MDAMB361	-0.004
MDAMB415	0.003
MDAMB436	-0.0141

Same assay, conditions: 0.0003162 µM

Cell Line	increase in dead-cell fraction
MDAMB231	-0.0002
MDAMB330	-0.0007
MDAMB361	-0.0021
MDAMB415	0.0003
MDAMB436	-0.004

Same assay, conditions: 0.001 µM

Cell Line	increase in dead-cell fraction
MDAMB231	0.002
MDAMB330	0.0004
MDAMB361	0.0045
MDAMB415	0.0038
MDAMB436	0.0035

Same assay, conditions: 0.003162 µM

Cell Line	increase in dead-cell fraction
MDAMB231	-0.0005
MDAMB330	0.0018
MDAMB361	-0.0062
MDAMB415	0.0023
MDAMB436	-0.0059

Same assay, conditions: 0.01 µM

Cell Line	increase in dead-cell fraction
MDAMB231	-0.0004
MDAMB330	0.0041
MDAMB361	-0.0039
MDAMB415	0.0067
MDAMB436	-0.0057

Same assay, conditions: 0.03162 µM

Cell Line	increase in dead-cell fraction
MDAMB231	0.0008
MDAMB330	0.0164
MDAMB361	0.0484
MDAMB415	0.0049
MDAMB436	0.0007

Same assay, conditions: 0.1 µM

Cell Line	increase in dead-cell fraction
MDAMB231	0.0103
MDAMB330	0.664
MDAMB361	0.454
MDAMB415	0.0372
MDAMB436	0.0043

Same assay, conditions: 0.3162 µM

Cell Line	increase in dead-cell fraction
MDAMB231	0.0403
MDAMB330	0.519
MDAMB361	0.219
MDAMB415	0.104
MDAMB436	0.0247

Same assay, conditions: 1 µM

Cell Line	increase in dead-cell fraction
MDAMB231	0.224
MDAMB330	0.413
MDAMB361	0.106
MDAMB415	0.104
MDAMB436	0.0705

Compound: CCc1cnn2c(NCc3ccc[n+]([O-])c3)cc(N3CCCC[C@H]3CCO)nc12
Assay: as above
Settings: 0.0001 µM

Cell Line	increase in dead-cell fraction
MDAMB231	0.0051
MDAMB330	-0.0012
MDAMB361	0.0019
MDAMB415	-0.001
MDAMB436	-0.0027

Same assay, conditions: 0.0003162 µM

Cell Line	increase in dead-cell fraction
MDAMB231	-0.0006
MDAMB330	-0.0001
MDAMB361	-0.0027
MDAMB415	0.0007
MDAMB436	-0.0028

Same assay, conditions: 0.001 µM

Cell Line	increase in dead-cell fraction
MDAMB231	0.0055
MDAMB330	0.0032
MDAMB361	-0.0041
MDAMB415	-0.0017
MDAMB436	0.0008

Same assay, conditions: 0.003162 µM

Cell Line	increase in dead-cell fraction
MDAMB231	-0.0028
MDAMB330	0.0022
MDAMB361	0.0003
MDAMB415	0.0007
MDAMB436	0.0055

Same assay, conditions: 0.01 µM

Cell Line	increase in dead-cell fraction
MDAMB231	0.0529
MDAMB330	0.0023
MDAMB361	0.0259
MDAMB415	0.0031
MDAMB436	0.0157

Same assay, conditions: 0.03162 µM

Cell Line	increase in dead-cell fraction
MDAMB231	0.459
MDAMB330	0.0691
MDAMB361	0.303
MDAMB415	0.0447
MDAMB436	0.0896

Same assay, conditions: 0.1 µM

Cell Line	increase in dead-cell fraction
MDAMB231	0.573
MDAMB361	0.148
MDAMB415	0.152
MDAMB436	0.0459

Same assay, conditions: 0.3162 µM

Cell Line	increase in dead-cell fraction
MDAMB231	0.582
MDAMB361	0.14
MDAMB415	0.12
MDAMB436	0.0256

Same assay, conditions: 1 µM

Cell Line	increase in dead-cell fraction
MDAMB231	0.618
MDAMB361	0.153
MDAMB415	0.154
MDAMB436	0.035

Compound: CN(C)C/C=C/C(=O)Nc1ccc(C(=O)Nc2cccc(Nc3ncc(Cl)c(-c4c[nH]c5ccccc45)n3)c2)cc1 [THZ1]
Assay: as above
Settings: 0.0001 µM

Cell Line	increase in dead-cell fraction
MDAMB231	-0.0006
MDAMB330	0.0016
MDAMB361	-0.0046
MDAMB415	0.0048
MDAMB436	0.0026

Same assay, conditions: 0.0003162 µM

Cell Line	increase in dead-cell fraction
MDAMB231	0.0015
MDAMB330	0.0039
MDAMB361	-0.0085
MDAMB415	0.0014
MDAMB436	-0.0097

Same assay, conditions: 0.001 µM

Cell Line	increase in dead-cell fraction
MDAMB231	0.0027
MDAMB330	0.0043
MDAMB361	-0.0074
MDAMB415	0.0046
MDAMB436	-0.0017

Same assay, conditions: 0.003162 µM

Cell Line	increase in dead-cell fraction
MDAMB231	0.0007
MDAMB330	0.0044
MDAMB361	0.0099
MDAMB415	-0.0013
MDAMB436	-0.0001

Same assay, conditions: 0.01 µM

Cell Line	increase in dead-cell fraction
MDAMB231	-0.0012
MDAMB330	0.0071
MDAMB361	0.016
MDAMB415	0.0061
MDAMB436	-0.006

Same assay, conditions: 0.03162 µM

Cell Line	increase in dead-cell fraction
MDAMB231	0.0033
MDAMB330	0.105
MDAMB361	0.0299
MDAMB415	0.0106
MDAMB436	-0.0078

Same assay, conditions: 0.1 µM

Cell Line	increase in dead-cell fraction
MDAMB231	0.0231
MDAMB330	0.359
MDAMB361	0.166
MDAMB415	0.0295
MDAMB436	0.0476

Same assay, conditions: 0.3162 µM

Cell Line	increase in dead-cell fraction
MDAMB231	0.0712
MDAMB330	0.389
MDAMB361	0.246
MDAMB415	0.0604
MDAMB436	0.0477

Same assay, conditions: 1 µM

Cell Line	increase in dead-cell fraction
MDAMB231	0.363
MDAMB330	0.311
MDAMB361	0.186
MDAMB415	0.13
MDAMB436	0.0644
